Columns and labels:
[1] = tested on: L. donovani promastigotes; test: Cell cycle (FACS) analysis, L. donovani promastigotes; type: cell-based, Leishmania donovani; conditions: 5x EC50
Protocol: consisted of 1 µL (40 ng) of cDNA, 10 µL of Brilliant III Ultra-Fast QPCR Master Mix (Agilent Technologies), 1 µL (500 nM) each of the forward and reverse primers, and 0.3 µl (30 nM) of reference dye and nuclease-free PCR grade-treated water. PCR was performed using an Agilent Mx3005P machine with the following cycling conditions:
95°C for 3 min; 40 cycles of 95°C for 20 s; then 60 °C for 20 s. The reference gene TERT (Tb927.11.10190, telomerase reverse transcriptase) was used to provide a baseline of transcription levels for normalization of the data. Relative quantification in the tetracycline-induced cell lines were normalized to the un-induced cell line using the […]
h. Morphological analysis […]
Cultures of bloodstream T. brucei and L. donovani promastigotes at starting cell densities of 5 x 105 were incubated with concentrations of compound 7 equivalent to 5x their respective EC50 values. […] After washing, cell densities were adjusted to 5 × 10^5 cells mL, re-suspended in 500 µL of PBS containing 50 µg/mL propidium iodide, 50 µg/mL RNase and 0.1% Triton X-100, incubated at room temperature for 20 min in the dark and analysed using FACSort analytical flow cytometer using Cellquest software (BD Biosciences). j. […]

[2] = tested on: TA1537; test: Ames test, strain TA1537
Protocol: oxidative metabolism system (S9-mix). The maximum concentration tested and […]
Compound 7a was tested in a bacterial mutation screening assay (Ames test) with Salmonella typhimurium TA1535, TA1537, TA98, TA100 and Escherichia coli WP2uvrA(pKM101) in the presence and absence of an exogenous mammalian […]
The bacterial mutation screening assay was a plate incorporation test carried out as previously described15 and according to current methodology. […]

[3] = molecular target: T1, human purified 26S proteasome (Homo sapiens, UniProt P28074+P49721); test: Proteasome activity assay, chymotrypsin-like, purified human 26S; type: biochemical
T1 construct: purchased Boston Biochem
Protocol: Proteasome activity assays
Compounds were dispensed into black 384-well assay plates (Greiner) by acoustic dispensing (LabCyte ECHO). For potency determinations, eleven-point, one in three dilution curves were generated, with a top concentration of 100 µM. Three proteasome activities were measured using a commercially available indirect enzyme-based luminescent assay kit (Promega) with Suc-LLVY-aminoluciferin, Z-LRR-aminoluciferin and Z-nLPnLD-aminoluciferin used as substrates for chymotrypsin-like, trypsin-like and caspase-like activities, respectively. In addition to proteasome samples: L. donovani and THP1-enriched proteasomes, commercially available human purified 26S proteasome (Boston Biochem) was also assessed. Proteasome final assay concentration were 0.025 mg/ml for L. donovani and THP1-enriched proteasomes and 1 nM for human purified 26S proteasome. Proteasome solution was added to the plates containing the compounds one hour before adding the proteasome substrate solution.
Substrate solution was then added and after 30 min of incubation luminescent signal was measured in an Envision reader (PerkinElmer).

[4] = tested on: Host Cell; test: Host cell toxicity in the clinical strain panel; type: cell-based
Text: page 46: Supplementary Tables Table S1. […] MHOM/IN/2002/BHU1 0.6 >50 […] Results from one or two (both values shown) biological replicates. Table S2. […] Data represents % of reduction of parasite burden in drug- treated and vehicle control animals calculated from mean LDU data.

SMILES	effect on cell cycle progression [1]	Mean revertants per plate ([2]; with S9-mix, dose level 50 per plate)	Mean revertants per plate ([2]; with S9-mix, dose level 150 per plate)	Mean revertants per plate ([2]; with S9-mix, dose level 500 per plate)	Mean revertants per plate ([2]; with S9-mix, dose level 1500 per plate)	Mean revertants per plate ([2]; with S9-mix, dose level 2500 per plate)	Mean revertants per plate ([2]; with S9-mix, dose level 5000 per plate)	Mean revertants per plate ([2]; without S9-mix, dose level 50 per plate)	Mean revertants per plate ([2]; without S9-mix, dose level 150 per plate)	Mean revertants per plate ([2]; without S9-mix, dose level 500 per plate)	Mean revertants per plate ([2]; without S9-mix, dose level 1500 per plate)	Mean revertants per plate ([2]; without S9-mix, dose level 2500 per plate)	Mean revertants per plate ([2]; without S9-mix, dose level 5000 per plate)	IC50 [3] [µM]	EC50 ([4]; strain MHOM/ET/67/HU3 (LV9)) [µM]	EC50 ([4]; strain MHOM/IN/80/DD8) [µM]	EC50 ([4]; strain MHOM/IN/2002/BHU1) [µM]	EC50 ([4]; strain MHOM/MA/67/ITMAP263) [µM]	EC50 ([4]; strain SUKA001) [µM]
O=C(Nc1ccc(F)c(-c2cn3nc(-c4ccccc4)cnc3n2)c1)N1CCCC1 [Compound 7]	accumulation of cells in G2/M	–	–	–	–	–	–	–	–	–	–	–	–	–	–	–	–	–	–
O=C(Nc1ccc(F)c(-c2ccn3c(N4CCOCC4)cnc3n2)c1)N1CCCC1 [Compound 8]	–	18.0	14.5	21.0	11.0	13.5	8.5	14.0	9.5	16.0	12.5	14.5	6.5	13 ± 0.88	> 50	> 50	> 50	> 50	> 50

— paper PMC6511062, “Preclinical candidate for the treatment of visceral leishmaniasis that acts through proteasome inhibition” (Proceedings of the National Academy of Sciences of the …, 2019)
